Measurements as given in patent US20220396597A1 (priority 2019, published 2022).

Columns and labels:
[1] = target: α1Q241L mutated GABAARs (UniProt P18507+P47870+P62813, Q268L); experiment: GABA current in N2a cells transfected with α1Q241L, β2 and γ2 subunits; assay type: cell-based; conditions: 10 μM GABA; AlloP 50 nM, MQ-221 10 μM
[2] = system: NMDAR; experiment: NMDA-induced whole-cell currents in cultured hippocampal neurons (voltage clamp); assay type: cell-based, rat; conditions: 10 μM NMDA

α1Q241L mutated GABAARs, sequence (P62813 28-455 Q268L): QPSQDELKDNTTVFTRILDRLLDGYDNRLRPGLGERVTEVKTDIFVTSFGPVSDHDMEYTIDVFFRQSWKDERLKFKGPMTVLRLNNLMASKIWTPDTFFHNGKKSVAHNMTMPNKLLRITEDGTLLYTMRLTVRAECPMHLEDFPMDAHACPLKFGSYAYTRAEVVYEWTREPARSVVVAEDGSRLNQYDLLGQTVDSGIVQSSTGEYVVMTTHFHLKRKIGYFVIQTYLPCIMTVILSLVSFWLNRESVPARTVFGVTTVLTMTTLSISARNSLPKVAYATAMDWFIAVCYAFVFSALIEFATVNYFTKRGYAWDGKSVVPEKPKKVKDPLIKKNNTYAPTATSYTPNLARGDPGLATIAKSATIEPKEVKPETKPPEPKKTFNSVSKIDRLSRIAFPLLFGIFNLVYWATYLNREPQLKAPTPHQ
α1Q241L mutated GABAARs, sequence (P47870 25-512 limits assumed): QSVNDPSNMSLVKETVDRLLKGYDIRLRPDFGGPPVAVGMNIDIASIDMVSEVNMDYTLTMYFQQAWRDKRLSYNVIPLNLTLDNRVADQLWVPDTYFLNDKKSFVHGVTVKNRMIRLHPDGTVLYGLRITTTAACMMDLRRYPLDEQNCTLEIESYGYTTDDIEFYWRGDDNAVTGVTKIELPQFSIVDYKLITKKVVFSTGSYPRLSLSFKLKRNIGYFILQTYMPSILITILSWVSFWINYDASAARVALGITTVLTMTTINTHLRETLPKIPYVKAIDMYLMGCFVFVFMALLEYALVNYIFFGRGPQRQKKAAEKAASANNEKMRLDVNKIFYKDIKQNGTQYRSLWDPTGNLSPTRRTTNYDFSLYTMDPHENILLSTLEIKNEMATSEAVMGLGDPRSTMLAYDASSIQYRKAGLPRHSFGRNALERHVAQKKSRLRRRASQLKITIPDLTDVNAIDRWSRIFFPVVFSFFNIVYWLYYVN
α1Q241L mutated GABAARs, sequence (P18507 40-475): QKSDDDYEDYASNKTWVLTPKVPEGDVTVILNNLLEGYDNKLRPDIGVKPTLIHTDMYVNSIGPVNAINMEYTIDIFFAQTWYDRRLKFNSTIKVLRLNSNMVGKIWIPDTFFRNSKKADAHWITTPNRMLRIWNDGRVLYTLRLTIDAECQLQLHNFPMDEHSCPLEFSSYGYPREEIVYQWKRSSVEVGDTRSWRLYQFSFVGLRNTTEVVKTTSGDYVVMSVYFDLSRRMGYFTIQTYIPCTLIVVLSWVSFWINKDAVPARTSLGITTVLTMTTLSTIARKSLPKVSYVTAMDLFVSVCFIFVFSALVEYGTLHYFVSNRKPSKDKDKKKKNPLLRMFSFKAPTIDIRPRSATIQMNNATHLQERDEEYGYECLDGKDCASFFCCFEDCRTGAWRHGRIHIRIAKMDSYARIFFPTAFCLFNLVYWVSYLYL

| Compound | Effect of the α1 Q241L mutation on potentiation of GABA current [1] | Action on closed NMDAR channels (pre-application in the absence of agonist) ([2]; 2.5 μM MQ-221, 300 μM 3α5βPS) | Inhibition of NMDAR function in the presence of agonist (co-application) ([2]; 300 μM 3α5βPS) |
| --- | --- | --- | --- |
| CC(=O)[C@H]1CC[C@H]2[C@@H]3CC[C@H]4C[C@H](O)CC[C@]4(C)[C@H]3CC[C@]12C [allopregnanolone, reference compound] | elimination of allopregnanolone (AlloP) potentiation |  |  |
| pregnanolone sulfate [reference compound] |  | little effect on closed channels | strongly inhibited |
